# Patent publication US9409905B2, “Antibacterial compounds and methods for use” (PTC THERAPEUTICS, INC., priority 2011, dated 2016)
# Columns and labels:
# [1] = tested on: Klebsiella pneumoniae (K. pneumoniae) 35657; assay: Antibacterial activity, MIC (Table 4); assay type: cell-based; settings: K. pneumoniae 35657, read-out: MIC, 35657
# In short: (§1)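 Values are MICs in μg/mL, read as the lowest compound concentration at which no growth is visible by eye. They come from a microbroth dilution method.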
# [2] = tested on: Acinetobacter baumannii (A. baumannii) BAA747; assay: Antibacterial activity, MIC (Table 4); assay type: cell-based; settings: A. baumannii BAA747, read-out: MIC, BAA747
# In short: as §1
# [3] = tested on: E. coli LZ3111; assay: Antibacterial activity, MIC, quinolone resistant strain (Table 2); assay type: cell-based; settings: Escherichia coli, LZ3111, read-out: MIC LZ3111
# In short: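 MIC values (μg/mL) came from a microbroth dilution assay, scored as the lowest drug concentration at which no growth was visible by eye.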
# [4] = tested on: A. baumannii MXX2240; assay: Antibacterial activity, MIC, resistant strain (Table 4); assay type: cell-based; settings: Acinetobacter baumannii, MXX2240; resistant A. baumannii MMX2240, multi-drug resistant clinical isolate; read-out: MIC, MMX2240
# Excerpt: (§2) The antibacterial activity from a microbroth dilution method may be presented as the minimum inhibitory concentration (MIC in μg/mL). The MIC value is the lowest concentration of drug which prevents macroscopically visible growth under test conditions.
# (§3) Antibacterial activity of test compounds against the Gram-negative Acinetobacter baumannii (A. baumannii) BAA747 and Klebsiella pneumoniae (K. pneumoniae) 35657 bacterium and the resistant A. baumannii MXX2240 and K. pneumoniae MXX1232 strains are shown in Table 4. The MMX strains are multi-drug resistant clinical isolates.
# [5] = tested on: K. pneumoniae MXX1232; assay: as above; assay type: cell-based; settings: Klebsiella pneumoniae, MXX1232; resistant K. pneumoniae MMX1232, multi-drug resistant clinical isolate; read-out: MIC, MMX1232
# Excerpt: as §2, §3
# [6] = tested on: Escherichia coli (E. coli) BAS849; assay: Antibacterial activity, microbroth dilution MIC (Table 1); assay type: cell-based; settings: microbroth dilution, super sensitive Gram-negative E. coli BAS849, read-out: MIC, BAS849
# In short: (§4)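 Growth inhibition by microbroth dilution. MIC = lowest μg/mL with no visible growth. Strain 25922 is the control Gram-negative; BAS849 is hypersensitive.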
# [7] = tested on: Staphylococcus aureus (S. aureus) 29213; assay: as above; assay type: cell-based; settings: microbroth dilution, Gram-positive S. aureus 29213, read-out: MIC, 29213
# In short: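 MIC (μg/mL) is taken as the lowest concentration with no macroscopically visible growth. Strains tested by microbroth dilution: Gram-positive S. aureus 29213, control Gram-negative E. coli 25922, and super-sensitive E. coli BAS849.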
# [8] = tested on: E. coli 25922; assay: as above; assay type: cell-based, Escherichia coli; settings: Escherichia coli; microbroth dilution; control Gram-negative E. coli 25922 strain; read-out: MIC, 25922
# In short: as §4
# [9] = tested on: Pseudomonas aeruginosa (P. aeruginosa) 27853; assay: Antibacterial activity, MIC (Table 5); assay type: cell-based; settings: P. aeruginosa 27853, read-out: MIC, 27853
# In short: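 Values are MICs in μg/mL, read as the lowest concentration at which no growth is visible by eye. They were determined by a microbroth dilution method.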
smiles,measurement,setting,value
"COCC(C)NCc1cc2cc(-c3[nH]c(=O)c(C(=O)O)c(O)c3C)ccc2n1C (stereo not drawn) [Cpd 346, 4-hydroxy-6-(2-((1-methoxypropan-2-ylamino)methyl)-1-methyl-1H-indol-5-yl)-5-methyl-2-oxo-1,2-dihydropyridine-3-carboxylic acid]",MIC,[1],3.5 to 12.5 µg/mL
same,MIC,[2],3.5 to 12.5 µg/mL
same,MIC,[3],3.5 to 12.5 µg/mL
same,MIC,[4],3.5 to 12.5 µg/mL
same,MIC,[5],12.5 to 150 µg/mL
same,MIC,[6],< 1 µg/mL
same,MIC,[7],12.5 to 150 µg/mL
same,MIC,[8],12.5 to 150 µg/mL
same,MIC,[9],12.5 to 150 µg/mL
"CCC(C)NCc1cc2cc(-c3[nH]c(=O)c(C(=O)O)c(O)c3C)ccc2n1C (stereo not drawn) [Cpd 347, 6-(2-((sec-butylamino)methyl)-1-methyl-1H-indol-5-yl)-4-hydroxy-5-methyl-2-oxo-1,2-dihydropyridine-3-carboxylic acid]",MIC,[1],1 to 3.5 µg/mL
same,MIC,[2],< 1 µg/mL
same,MIC,[3],1 to 3.5 µg/mL
same,MIC,[4],< 1 µg/mL
same,MIC,[5],12.5 to 150 µg/mL
same,MIC,[6],< 1 µg/mL
same,MIC,[7],12.5 to 150 µg/mL
same,MIC,[8],3.5 to 12.5 µg/mL
same,MIC,[9],12.5 to 150 µg/mL
"Cc1c(-c2ccc3c(c2)cc(CNC(C)C)n3C)[nH]c(=O)c(C(=O)O)c1O [Cpd 348, 4-hydroxy-6-(2-((isopropylamino)methyl)-1-methyl-1H-indol-5-yl)-5-methyl-2-oxo-1,2-dihydropyridine-3-carboxylic acid]",MIC,[1],1 to 3.5 µg/mL
same,MIC,[2],1 to 3.5 µg/mL
same,MIC,[3],1 to 3.5 µg/mL
same,MIC,[4],1 to 3.5 µg/mL
same,MIC,[5],12.5 to 150 µg/mL
same,MIC,[6],< 1 µg/mL
same,MIC,[7],12.5 to 150 µg/mL
same,MIC,[8],3.5 to 12.5 µg/mL
same,MIC,[9],12.5 to 150 µg/mL
"Cc1c(-c2ccc3c(c2)cc(CNC(C)CO)n3C)[nH]c(=O)c(C(=O)O)c1O (stereo not drawn) [Cpd 349, 4-hydroxy-6-(2-((1-hydroxypropan-2-ylamino)methyl)-1-methyl-1H-indol-5-yl)-5-methyl-2-oxo-1,2-dihydropyridine-3-carboxylic acid]",MIC,[1],3.5 to 12.5 µg/mL
same,MIC,[2],12.5 to 150 µg/mL
same,MIC,[3],3.5 to 12.5 µg/mL
same,MIC,[4],12.5 to 150 µg/mL
same,MIC,[5],12.5 to 150 µg/mL
same,MIC,[6],1 to 3.5 µg/mL
same,MIC,[7],12.5 to 150 µg/mL
same,MIC,[8],12.5 to 150 µg/mL
same,MIC,[9],12.5 to 150 µg/mL
"Cc1c(-c2ccc3c(c2)cc(CNCCO)n3C)[nH]c(=O)c(C(=O)O)c1O [Cpd 350, 4-hydroxy-6-(2-((2-hydroxyethylamino)methyl)-1-methyl-1H-indol-5-yl)-5-methyl-2-oxo-1,2-dihydropyridine-3-carboxylic acid]",MIC,[1],12.5 to 150 µg/mL
same,MIC,[2],12.5 to 150 µg/mL
same,MIC,[3],3.5 to 12.5 µg/mL
same,MIC,[4],12.5 to 150 µg/mL
same,MIC,[5],12.5 to 150 µg/mL
same,MIC,[6],3.5 to 12.5 µg/mL
same,MIC,[7],12.5 to 150 µg/mL
same,MIC,[8],12.5 to 150 µg/mL
same,MIC,[9],12.5 to 150 µg/mL
"Cc1c(-c2ccc3c(c2)cc(CNC(C)(C)C)n3C)[nH]c(=O)c(C(=O)O)c1O [Cpd 351, 6-(2-((tert-butylamino)methyl)-1-methyl-1H-indol-5-yl)-4-hydroxy-5-methyl-2-oxo-1,2-dihydropyridine-3-carboxylic acid]",MIC,[1],1 to 3.5 µg/mL
same,MIC,[2],< 1 µg/mL
same,MIC,[3],3.5 to 12.5 µg/mL
same,MIC,[4],1 to 3.5 µg/mL
same,MIC,[5],12.5 to 150 µg/mL
same,MIC,[6],< 1 µg/mL
same,MIC,[7],12.5 to 150 µg/mL
same,MIC,[8],1 to 3.5 µg/mL
same,MIC,[9],12.5 to 150 µg/mL
"CCCNCc1cc2cc(-c3[nH]c(=O)c(C(=O)O)c(O)c3C)ccc2n1C [Cpd 352, 4-hydroxy-5-methyl-6-(1-methyl-2-((propylamino)methyl)-1H-indol-5-yl)-2-oxo-1,2-dihydropyridine-3-carboxylic acid]",MIC,[1],1 to 3.5 µg/mL
same,MIC,[2],3.5 to 12.5 µg/mL
same,MIC,[3],< 1 µg/mL
same,MIC,[4],1 to 3.5 µg/mL
same,MIC,[5],12.5 to 150 µg/mL
same,MIC,[6],< 1 µg/mL
same,MIC,[7],12.5 to 150 µg/mL
same,MIC,[8],3.5 to 12.5 µg/mL
same,MIC,[9],12.5 to 150 µg/mL
"Cc1c(-c2ccc3c(c2)cc(CNCC(C)C)n3C)[nH]c(=O)c(C(=O)O)c1O [Cpd 353, 4-hydroxy-6-(2-((isobutylamino)methyl)-1-methyl-1H-indol-5-yl)-5-methyl-2-oxo-1,2-dihydropyridine-3-carboxylic acid]",MIC,[1],3.5 to 12.5 µg/mL
same,MIC,[2],3.5 to 12.5 µg/mL
same,MIC,[3],1 to 3.5 µg/mL
same,MIC,[4],< 1 µg/mL
same,MIC,[5],12.5 to 150 µg/mL
same,MIC,[6],< 1 µg/mL
same,MIC,[7],12.5 to 150 µg/mL
same,MIC,[8],3.5 to 12.5 µg/mL
same,MIC,[9],12.5 to 150 µg/mL
"Cc1c(-c2ccc3c(c2)cc(CNC2CC2)n3C)[nH]c(=O)c(C(=O)O)c1O [Cpd 355, 6-(2-((cyclopropylamino)methyl)-1-methyl-1H-indol-5-yl)-4-hydroxy-5-methyl-2-oxo-1,2-dihydropyridine-3-carboxylic acid]",MIC,[1],3.5 to 12.5 µg/mL
same,MIC,[2],3.5 to 12.5 µg/mL
same,MIC,[3],< 1 µg/mL
same,MIC,[4],< 1 µg/mL
same,MIC,[5],12.5 to 150 µg/mL
same,MIC,[6],< 1 µg/mL
same,MIC,[7],12.5 to 150 µg/mL
same,MIC,[8],3.5 to 12.5 µg/mL
same,MIC,[9],12.5 to 150 µg/mL
"Cc1c(-c2ccc3c(c2)cc(CNC2(C)CC2)n3C)[nH]c(=O)c(C(=O)O)c1O [Cpd 356, 4-hydroxy-5-methyl-6-(1-methyl-2-((1-methylcyclopropylamino)methyl)-1H-indol-5-yl)-2-oxo-1,2-dihydropyridine-3-carboxylic acid]",MIC,[1],3.5 to 12.5 µg/mL
same,MIC,[2],< 1 µg/mL
same,MIC,[3],< 1 µg/mL
same,MIC,[4],< 1 µg/mL
same,MIC,[5],12.5 to 150 µg/mL
same,MIC,[6],< 1 µg/mL
same,MIC,[7],3.5 to 12.5 µg/mL
same,MIC,[8],3.5 to 12.5 µg/mL
same,MIC,[9],12.5 to 150 µg/mL
"CCN(CC)Cc1cc2cc(-c3[nH]c(=O)c(C(=O)O)c(O)c3C)ccc2n1C [Cpd 357, 6-(2-((diethylamino)methyl)-1-methyl-1H-indol-5-yl)-4-hydroxy-5-methyl-2-oxo-1,2-dihydropyridine-3-carboxylic acid]",MIC,[1],3.5 to 12.5 µg/mL
same,MIC,[2],3.5 to 12.5 µg/mL
same,MIC,[3],1 to 3.5 µg/mL
same,MIC,[4],3.5 to 12.5 µg/mL
same,MIC,[5],12.5 to 150 µg/mL
same,MIC,[6],< 1 µg/mL
same,MIC,[7],12.5 to 150 µg/mL
same,MIC,[8],3.5 to 12.5 µg/mL
same,MIC,[9],12.5 to 150 µg/mL
"Cc1c(-c2ccc3c(c2)cc(CN)n3C)[nH]c(=O)c(C(=O)O)c1O [Cpd 358, 6-(2-(aminomethyl)-1-methyl-1H-indol-5-yl)-4-hydroxy-5-methyl-2-oxo-1,2-dihydropyridine-3-carboxylic acid]",MIC,[1],1 to 3.5 µg/mL
same,MIC,[2],12.5 to 150 µg/mL
same,MIC,[3],1 to 3.5 µg/mL
same,MIC,[4],3.5 to 12.5 µg/mL
same,MIC,[5],12.5 to 150 µg/mL
same,MIC,[6],1 to 3.5 µg/mL
same,MIC,[7],12.5 to 150 µg/mL
same,MIC,[8],3.5 to 12.5 µg/mL
same,MIC,[9],12.5 to 150 µg/mL
"CCc1c(-c2ccc3c(c2)c(F)c(CNC)n3C)[nH]c(=O)c(C(=O)O)c1O [Cpd 368, 5-ethyl-6-(3-fluoro-1-methyl-2-((methylamino)methyl)-1H-indol-5-yl)-4-hydroxy-2-oxo-1,2-dihydropyridine-3-carboxylic acid]",MIC,[1],1 to 3.5 µg/mL
same,MIC,[2],1 to 3.5 µg/mL
same,MIC,[3],3.5 to 12.5 µg/mL
same,MIC,[4],3.5 to 12.5 µg/mL
same,MIC,[5],12.5 to 150 µg/mL
same,MIC,[6],< 1 µg/mL
same,MIC,[7],12.5 to 150 µg/mL
same,MIC,[8],1 to 3.5 µg/mL
same,MIC,[9],12.5 to 150 µg/mL
